{"source": "patent US11730770B2", "about": "“Methods for making and using sinoatrial node-like pacemaker cardiomyocytes and ventricular-like cardiomyocytes” (UNIVERSITY HEALTH NETWORK, priority 2015, dated 2023)", "assay_type_in_all_cases": "cell-based, human", "key": {"[1]": {"tested_on": "HES3 NKX2-5:GFP reporter line", "assay": "Flow cytometry of day 20 differentiation cultures for NKX2-5 and cTNT", "method": "Human pluripotent stem cell lines (Hes3 NKX2-5:GFP)^10 H7 (HESC line approved by NIH registration number 0061^32 and MSC-IPS1^11 were cultured as described^12. For differentiation into the cardiac lineage the established protocol was used with the following modifications (FIG. 1A). 80% confluent hPSCs cultures were dissociated into single cells, suspended in StemPro-34 Media containing 1 ng/ml BMP4 and 10 μM ROCK inhibitor and incubated for 18 h on an orbital shaker to generate embryoid bodies (EBs). The next day (day 1 of differentiation) the EBs were transferred to mesoderm induction media: StemPro-34 containing 10 ng/ml BMP4, 6 ng/ml ActivinA, 5 ng/ml bFGF. At day 3 of differentiation the EBs were washed once using IMDM and suspended in cardiac induction media: StemPro-34 containing 0.5 μM IWP2, 10 ng/ml VEGF, and optionally 5.4 μM SB-431542 (SB, Activin/Nodal/TGFβ inhibitor). At day 5 of differentiation EBs were switched to basic media: Stempro containing 5 ng/ml VEGF. Media was supplemented with VEGF until day 12 of differentiation and changed every 4 days. All cytokines were purchased from R&D systems if not indicated otherwise. EBs were cultured under low oxygen conditions 5% CO2, 5% O2, 90% N2 until day 12 and at 5% CO2, normal air conditions for the rest of the culture period.\nEBs were dissociated into single cells at the mesoderm stage (day 3 of differentiation) using TrypLE (Life Technologies) with the rational to ensure efficient cytokine supply to each cell. Cells were placed into 96 well low cluster plates at 80,000 cells/well with the indicated cytokines and 5 μM ROCK inhibitor for re-aggregation into EBs (FIG. 2A). At day 5 of differentiation EBs were transferred to 24 well low cluster plates and continued to be cultured in basic media as described above.\nFor efficient specification of SANLCM pacemaker, mesoderm was induced with the 3B/2A condition (3 ng/ml BMP4, 2 ng/ml ACTA) at day 1 of differentiation. At day 3 EBs were dissociated as described above and treated with 2.5 ng/ml BMP4 and 0.5 μM RA in addition to standard cardiac induction media.\nFor the generation of SANLCM cultures free of NKX2-5′ cardiomyocytes mesoderm was induced with the 3B/2A condition (3 ng/ml BMP4, 2 ng/ml ACTA) at day 1 of differentiation. For this protocol EBs were kept intact and treated at day 3 with 2.5 ng/ml BMP4, 0.5 μM RA and 960 nM FGF inhibitor (PD 173074, Tocris) at day 3 or day 4 in addition to standard cardiac induction media.\n(§1) For the dissociation of day 3-day 12 EBs TrypLE was used. Day 12-30 EBs were incubated in HANKs buffer containing 1 mg/ml Collagenes type 2 (Worthington) with gentle shaking over night at room temperature, prior to TypLE dissociation. Cells were stained at a concentration of 5×10^6 cells/ml with anti-PDGFRα-PE (1:20) anti-KDR-APC (1:10), (R&D Systems), anti-SIRPA-PeCy (clone SE5A5, 1:1000, Biolegend), anti-CD90-APC (BD), anti-cardiac isoform of cTNT (clone 13-11; 1:2000, Thermo Fischer), rabbit anti-human NKX2-5 (1:800, Cell Signaling Technology), goat anti-mouse IgG APC (1:250, BD), goat anti-mouse IgG PE (1:200, Jackson ImmunoResearch), donkey anti-rabbit IgG A647 Life Technologies). For cell-surface markers staining was carried out in PBS containing 5% FCS. For intra-cellular staining cells were fixed for 10 min at 4° C. with 4% PFA and stained in PBS containing 5% FCS and 0.5% saponin (cTNT) or 0.3% TritonX (NKX2-5). Stained cells were analyzed using the LSR II Flow cytometer (BD). For cell sorting the cells were kept in IMDM containing 5% FCS and sorted at a concentration of 10^6 cell/ml using MoFlo (BD) and Influx (BD) sorter. For sorting of PFA-fixed cells for subsequent RNA isolation the staining buffers and PBS for cell collection were supplemented with 5 mM DTT and 100 U/ml RNaseOUT (Life Technologies). All buffer components were RNAse free and samples were strictly kept on ice and sorted within 3 h from PFA-fixation. Data were analyzed using FlowJo software (Tree Star)."}, "[2]": {"tested_on": "pacemaker funny current (If)", "assay": "Patch clamp, pacemaker funny current density", "details": "2 mM Cesium (Cs+) vs Tyrode's solution", "method": "FIG. 9. A, Current-voltage relationship for pacemaker funny current density (If) in SANLCM and VLCM. Inset: voltage protocol, from a holding potential of −40 mV currents were elicited by 3 s voltage steps of −10 mV down to −120 mV. Current densities were measured by subtraction of the instantaneous current (t=0) from the current at the end of the 3 sec voltage step. B,C Original pacemaker funny current traces at different membrane potentials in Tyrode's solution (B) and blocked by the application of 2 mM Cesium (Cs^+) (C). Inset: voltage protocol, from a holding potential of −40 mV currents were elicited by 3 s voltage steps of −10 mV down to −120 mV. […] Current densities were measured as peak inward currents. […]\nAction potentials and membrane currents were measured with standard current- and voltage-clamp techniques using axopatch amplifier. […] Spontaneous action potentials, funny current (If) and inward rectifier potassium currents ([…]) were recorded at 37° C. using the perforated patch method (nystatin)^14 with the following bath solution (mM): NaCl 124. […] Sodium currents (IN) were recorded at 25° C. using the whole cell ruptured patch method in calcium free bath solution containing low Na^+ to reduce current amplitude for better voltage control (mM): NaCl 30, TEA-Cl 115, CaCb20.01, MgCl2 1, and glucose 5, Hepes 10 (pH 7.4, adjusted with NaOH). […]"}, "[3]": {"tested_on": "HES-2 embryonic stem cell line", "assay": "Flow cytometry of day 20 HES2 cultures, intracellular NKX2-5 and cTNT staining", "method": "For the generation of SANLCM cultures free of NKX2-5′ cardiomyocytes mesoderm was induced with the 3B/2A condition (3 ng/ml BMP4, 2 ng/ml ACTA) at day 1 of differentiation. […]\nas §1, with “For sorting of PFA-fixed cells for subsequent RNA isolation the staining buffers and PBS for cell collection were supplemented with 5 mM DTT and 100 U/ml RNaseOUT (Life Technologies). All buffer components were RNAse free and samples were strictly kept on ice and sorted within 3 h from PFA-fixation.” left out, “Star). […]” for “Star).”"}, "[4]": {"tested_on": "SAN pacemaker marker, ventricular marker and cardiac ion channels", "assay": "Q-PCR analysis of marker gene expression", "details": "BMP4 day 3-5, 2.5 ng/ml vs untreated control, day 4 to 12", "method": "Total RNA was isolated using the RNAqueous-micro Kit (Ambion) followed by a DNase digestion step (Ambion). For RNA isolation from PFA-fixed cells the RecoverAll Kit (Ambion) was used. 500 ng to 1 μg of RNA was reverse transcribed into cDNA using random hexamers and Oligo(dT) primers with Superscript III Reverse Transcriptase (life technologies). QPCRs were performed on the EP RealPlex MasterCycler (Eppendorf) using the QuntiFast SYBR Green PCR Kit (Qiagen) according to the manufacturer's instructions. A 10-fold dilution series of human genomic DNA standards ranging from 25 ng/μl to […] was used to evaluate the efficiency of the PCR and calculate the copy number of each gene relative to the house keeping gene TBP as described previously^13. Human fetal heart tissue gestation stage 17 was purchased from Novogenix Laboratories. After dissecting ventricular, sinoatrial node and atrioventricular node tissue RNA was isolated using the Trizol method (Life Technologies) and treated with DNase (Ambion)."}, "TBX18": {"tested_on": "TBX18", "assay": "Quantification of TBX18+ cells from immunostaining", "details": "BMP4 2.5 ng/ml day 3-5", "method": "Cells were fixed with 4% PFA for 10 min at 4° C. and permeabilized using 0.3% Triton X, 200 mM Glycerin for 20 min at RT. Samples were blocked for 30 min at room temperature in blocking buffer (BB): 10% donkey serum, 2% BSA, 0.1% Triton X. The following primary antibodies were incubated in BB over night at 4° C.: anti-cardiac isoform of cTNT (clone 13-11; 1:100, Thermo Fischer), rabbit anti-human MLC2v (1:100), rabbit anti-human SHOX2 (1:200), (Abcam), rabbit anti-human TBX3 (1:100), goat anti-human Tbx18 (1:50), (Santa Cruz). Respective secondary antibodies were incubated for 30 min at RT: donkey anti-mouse IgG A647 (1:400), donkey anti-rabbit IgG A467 (1:400), (Life Technologies), goat anti-mouse IgG Cy3 (1:400), donkey anti-rabbit IgG Cy3 (1:800), donkey anti-goat IgG Cy3 (1:800), (Jackson ImmunoResearch). DAPI was used to counterstain cell nuclei and slides were mounted using Fluorescent Mounting Medium (Dako). The Olympus FluoView 1000 Laser Scanning Confocal Microscope and the FV10-ASW software were used for imaging.\nFor the quantification of DAPI and TBX18 positive cell nuclei the IMAGE J software plugin ICTN was used. For each condition three random taken pictures (FIG. 3F) of three independent experiments were analyzed."}}}
{"compound": "bFGF: fibroblast growth factor FGF2", "values": [{"measurement": "NKX2-5-cTNT+ SANLCM population in day 20 cultures", "setting": "[1]; BMP+RA plus bFGF (20 ng/ml, day 4-6)", "result": "12±1", "unit": "%"}]}
{"compound": "CC1=C(/C=C/C(C)=C/C=C/C(C)=C/C(=O)O)C(C)(C)CCC1", "note": "[RA, retinoic acid]", "values": [{"measurement": "generation of total cardiomyocytes and SANLCM frequency", "setting": "[1]; RA 500 nM added at later times (days 3 to 12)", "result": "no effect"}]}
{"compound": "[Cs]", "note": "[Cesium]", "values": [{"measurement": "effect on pacemaker funny current traces", "setting": "[2]", "result": "blocked"}]}
{"compound": "CCN(CC)CCCCNc1ncc2cc(-c3cc(OC)cc(OC)c3)c(NC(=O)NC(C)(C)C)nc2n1", "note": "[PD 173074]", "values": [{"measurement": "NKX2-5+ myocytes in day 20 cultures", "setting": "[3]; 240 nM FGFi day 3-5, vs 43% at endogenous bFGF levels", "result": 5, "unit": "%"}, {"measurement": "NKX2-5-cTNT+ SANLCMs in day 20 cultures", "setting": "[3]; BMP 2.5 ng/ml, RA 0.5 μM, 240 nM FGFi day 3-5", "result": "up to 36%"}, {"measurement": "NKX2-5+ cardiomyocytes in day 20 cultures", "setting": "[1]; BMP+RA plus FGF inhibitor 240-960 nM", "result": 51, "unit": "%"}, {"measurement": "NKX2-5-cTNT+ SANLCM in day 20 cultures", "setting": "[1]; BMP+RA plus FGF inhibitor from day 4-6 (480 nM)", "result": "48±3", "unit": "%"}, {"measurement": "block in development of NKX2-5+ cardiomyocytes", "setting": "[1]; FGF inhibitor applied from day 5 onwards", "result": "no effect"}]}
{"compound": "BMP4: Bone Morphogenetic Protein 4", "values": [{"measurement": "TBX18 expression", "setting": "[4]", "result": "significantly up-regulated"}, {"measurement": "number of TBX18+ cells at day 6", "setting": "TBX18", "result": "38±2", "unit": "%"}, {"measurement": "proportion of SANLCMs", "setting": "[1]; BMP4 1.25-5 ng/ml day 3-5, mesoderm induced with 3B/2A", "result": "35±1", "unit": "%"}, {"measurement": "proportion of SANLCMs", "setting": "[1]; BMP4 1.25-5 ng/ml day 3-5, mesoderm induced with 5B/4A", "result": "21±1", "unit": "%"}, {"measurement": "proportion of SANLCMs", "setting": "[1]; BMP4 1.25-5 ng/ml day 3-5, mesoderm induced with 10B/6A", "result": "15±2", "unit": "%"}, {"measurement": "total cardiomyocytes", "setting": "[1]; high levels of BMP4 (10-20 ng/ml) between day 3-5", "result": "significant reduction"}]}
